Assay results reported in the NIST ThermoML archive (doi:10.1016/j.fluid.2012.08.002).

Assay: xn = mol fraction of the nth substance listed
Details: 101 kPa, Liquid; for speed of sound: Sing-around technique in a fixed-path interferometer; for mass density: Vibrating tube method

CCCCCCn1cc[n+](C)c1.F[B-](F)(F)F [1-hexyl-3-methylimidazolium tetrafluoroborate] + COCCO
Details | mass density [kg/m3] | speed of sound [m/s]
288.15 K, x1 = 0.053 | 996.474 | 1409.6
288.15 K, x1 = 0.1088 | 1021 | 1431.9
288.15 K, x1 = 0.2016 | 1052.83 | 1457.6
288.15 K, x1 = 0.3088 | 1077.88 | 1478.5
288.15 K, x1 = 0.4106 | 1093.47 | 1491.7
288.15 K, x1 = 0.5023 | 1103.61 | 1503.4
288.15 K, x1 = 0.5962 | 1112.5 | 1512.3
288.15 K, x1 = 0.7006 | 1122.49 | 1520
288.15 K, x1 = 0.7995 | 1132.99 | 1529.1
288.15 K, x1 = 0.9099 | 1145.62 | 1540
293.15 K, x1 = 0.053 | 991.791 | 1392.4
293.15 K, x1 = 0.1088 | 1016.45 | 1415.8
293.15 K, x1 = 0.2016 | 1048.37 | 1442.3
293.15 K, x1 = 0.3088 | 1073.64 | 1463.8
293.15 K, x1 = 0.4106 | 1089.74 | 1477.6
293.15 K, x1 = 0.5023 | 1100.22 | 1490.1
293.15 K, x1 = 0.5962 | 1109.27 | 1499.5
293.15 K, x1 = 0.7006 | 1119.44 | 1508.2
293.15 K, x1 = 0.7995 | 1130.02 | 1518.1
293.15 K, x1 = 0.9099 | 1142.38 | 1527.2
298.15 K, x1 = 0.053 | 987.817 | 1375.8
298.15 K, x1 = 0.1088 | 1012.38 | 1399.8
298.15 K, x1 = 0.2016 | 1044.22 | 1427.1
298.15 K, x1 = 0.3088 | 1069.47 | 1449.5
298.15 K, x1 = 0.4106 | 1085.86 | 1463.8
298.15 K, x1 = 0.5023 | 1096.66 | 1476.9
298.15 K, x1 = 0.5962 | 1106.01 | 1487.1
298.15 K, x1 = 0.7006 | 1116.37 | 1496.5
298.15 K, x1 = 0.7995 | 1126.8 | 1505.8
298.15 K, x1 = 0.9099 | 1138.92 | 1514.7
303.15 K, x1 = 0.053 | 983.383 | 1359.3
303.15 K, x1 = 0.1088 | 1008.21 | 1384
303.15 K, x1 = 0.2016 | 1040.16 | 1411.9
303.15 K, x1 = 0.3088 | 1065.51 | 1435.5
303.15 K, x1 = 0.4106 | 1081.93 | 1450.1
303.15 K, x1 = 0.5023 | 1092.85 | 1463.9
303.15 K, x1 = 0.5962 | 1102.49 | 1474.7
303.15 K, x1 = 0.7006 | 1113.08 | 1484.5
303.15 K, x1 = 0.7995 | 1123.59 | 1493.6
303.15 K, x1 = 0.9099 | 1135.86 | 1502.4
308.15 K, x1 = 0.053 | 979.101 | 1342.8
308.15 K, x1 = 0.1088 | 1004.1 | 1368.2
308.15 K, x1 = 0.2016 | 1036.07 | 1397
308.15 K, x1 = 0.3088 | 1061.47 | 1421.5
308.15 K, x1 = 0.4106 | 1077.94 | 1436.9
308.15 K, x1 = 0.5023 | 1089.12 | 1451
308.15 K, x1 = 0.5962 | 1098.81 | 1462.2
308.15 K, x1 = 0.7006 | 1109.56 | 1472.2
308.15 K, x1 = 0.7995 | 1120.09 | 1481.5
308.15 K, x1 = 0.9099 | 1132.31 | 1490.3
313.15 K, x1 = 0.053 | 974.997 | 1326.5
313.15 K, x1 = 0.1088 | 999.809 | 1352.3
313.15 K, x1 = 0.2016 | 1031.82 | 1382.1
313.15 K, x1 = 0.3088 | 1057.43 | 1407.4
313.15 K, x1 = 0.4106 | 1073.99 | 1424.1
313.15 K, x1 = 0.5023 | 1085.32 | 1438.4
313.15 K, x1 = 0.5962 | 1095.09 | 1449.7
313.15 K, x1 = 0.7006 | 1105.89 | 1460.1
313.15 K, x1 = 0.7995 | 1116.48 | 1469.5
313.15 K, x1 = 0.9099 | 1128.74 | 1478.5
318.15 K, x1 = 0.053 | 970.346 | 1309.8
318.15 K, x1 = 0.1088 | 995.598 | 1336.2
318.15 K, x1 = 0.2016 | 1027.87 | 1367.3
318.15 K, x1 = 0.3088 | 1053.41 | 1393.3
318.15 K, x1 = 0.4106 | 1070.02 | 1411.6
318.15 K, x1 = 0.5023 | 1080.99 | 1425.6
318.15 K, x1 = 0.5962 | 1090.77 | 1437.4
318.15 K, x1 = 0.7006 | 1101.5 | 1448.2
318.15 K, x1 = 0.7995 | 1112.28 | 1457.7
318.15 K, x1 = 0.9099 | 1124.84 | 1466.9
